These results are taken from paper PMC10526857, “In Vitro Enzymatic Studies Reveal pH and Temperature Sensitive Properties of the CLIC Proteins” (Biomolecules, 2023).

The target in experiment [1] is T1, CLIC3 (Homo sapiens, UniProt O95833).
T1 construct: recombinant, E. coli BL21(DE3), pET-28a His-tag cut off with thrombin, Ni-NTA and SEC purified
The experiment can be described thus: HEDS assay coupled to glutathione reductase, NADPH consumption at […] nm, Lineweaver-Burk. Type of experiment: biochemical. The following applies: 1 mM GSH, 250 µM NADPH, 0.5 µg/mL yeast GR, 10 µM CLIC, 5 mM potassium phosphate pH 7, 1 mM EDTA, 37 °C.

Experiment [2] has as its target T2, CLIC4 (Homo sapiens, UniProt Q9Y696).
T2 construct: recombinant, E. coli, pGEX-4T-1 N-terminal GST tag cut off with thrombin, SEC purified
The description is as above. The class given is biochemical. The following applies: 1 mM GSH, 250 µM NADPH, 0.5 µg/mL yeast GR, 10 µM CLIC, 5 mM potassium phosphate pH 7, 1 mM EDTA, 37 °C.

For experiment [3], the target named is T3, CLIC1 (Homo sapiens, UniProt O00299). The following applies: 1 mM GSH, 250 µM NADPH, 0.5 µg/mL yeast GR, 10 µM CLIC, 5 mM potassium phosphate pH 7, 1 mM EDTA, 37 °C.
Experiment [4] concerns the target T1, CLIC3. The experiment can be described thus: inhibition of HEDS reductase activity, GR-coupled NADPH consumption at […] nm. The class given is biochemical. The settings on record: 10 µM inhibitor, 10 µM CLIC, 1 h preincubation at 4 °C; 1 mM HEDS, 1 mM GSH, 250 µM NADPH, 0.5 µg/mL GR, pH 7, 37 °C.
Experiment [5] deals with T2, CLIC4. The experiment is described as above. The class given is biochemical. The settings on record: 10 µM inhibitor, 10 µM CLIC, 1 h preincubation at 4 °C; 1 mM HEDS, 1 mM GSH, 250 µM NADPH, 0.5 µg/mL GR, pH 7, 37 °C.
Experiment [6] concerns the target T3, CLIC1. The description is as above. Type of experiment: biochemical. Further details: recombinant, E. coli BL21(DE3), pET-28a His-tag cut off with thrombin, Ni-NTA and SEC purified. The following applies: 10 µM inhibitor, 10 µM CLIC, 1 h preincubation at 4 °C; 1 mM HEDS, 1 mM GSH, 250 µM NADPH, 0.5 µg/mL GR, pH 7, 37 °C.

T2 sequence (Q9Y696 whole entry): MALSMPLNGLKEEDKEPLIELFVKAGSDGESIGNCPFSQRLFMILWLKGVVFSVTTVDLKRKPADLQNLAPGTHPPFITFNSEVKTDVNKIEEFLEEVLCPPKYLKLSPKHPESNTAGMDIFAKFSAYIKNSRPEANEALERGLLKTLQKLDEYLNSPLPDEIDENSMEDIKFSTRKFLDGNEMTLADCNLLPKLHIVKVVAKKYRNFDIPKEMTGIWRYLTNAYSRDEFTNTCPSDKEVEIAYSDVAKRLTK
T1 sequence (O95833 whole entry): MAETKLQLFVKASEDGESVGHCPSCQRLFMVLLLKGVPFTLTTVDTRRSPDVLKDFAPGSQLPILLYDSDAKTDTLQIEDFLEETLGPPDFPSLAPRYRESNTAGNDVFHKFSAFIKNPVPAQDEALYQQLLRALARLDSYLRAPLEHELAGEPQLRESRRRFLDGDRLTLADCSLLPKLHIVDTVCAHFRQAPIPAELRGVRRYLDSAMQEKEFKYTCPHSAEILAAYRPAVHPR

`OCCSSCCO` [HEDS]: the figures for the Km on CLIC3 [1], at CLIC4 [2] and on CLIC1 [3] were 266 µM, 345 µM and 274 µM, respectively.
For the compound `C[C@@H]1[C@H](O)[C@@H](C)/C=C/C=C/C=C/C=C/C=C/C=C/C=C/[C@H](O[C@@H]2O[C@H](C)[C@@H](O)[C@H](N)[C@@H]2O)C[C@@H]2O[C@](O)(C[C@@H](O)C[C@@H](O)[C@H](O)CC[C@@H](O)C[C@@H](O)CC(=O)O[C@H]1C)C[C@H](O)[C@H]2C(=O)O` [amphotericin B], the “residual activity (%) at 10 μM” value on CLIC3 [4] is “Both rapamycin and amphotericin B caused inhibition of the enzymatic activity of all three proteins”; at CLIC4 [5], “Both rapamycin and amphotericin B caused inhibition of the enzymatic activity of all three proteins”; on CLIC1 [6], “with CLIC1′s activity virtually abolished by all three drugs”.
On to `CO[C@H]1C[C@@H]2CC[C@@H](C)[C@@](O)(O2)C(=O)C(=O)N2CCCC[C@H]2C(=O)O[C@H]([C@H](C)C[C@@H]2CC[C@@H](O)[C@H](OC)C2)CC(=O)[C@H](C)/C=C(\C)[C@@H](O)[C@@H](OC)C(=O)[C@H](C)C[C@H](C)/C=C/C=C/C=C/1C` [rapamycin], for which the “residual activity (%) at 10 μM” value on CLIC3 [4] was “Both rapamycin and amphotericin B caused inhibition of the enzymatic activity of all three proteins”; at CLIC4 [5], “Both rapamycin and amphotericin B caused inhibition of the enzymatic activity of all three proteins”; on CLIC1 [6], “with CLIC1′s activity virtually abolished by all three drugs”.
